# According to US4051237A, “Glycopeptide antibiotics Bu-2231 A and B and process for producing same” (priority 1975, dated 1977):
# Where two headings read alike, the source gives them in different places.
# Key:
# S. marcescens A20460 = test: MIC by two-fold agar dilution; type: cell-based; details: Mueller-Hinton agar, unit assumed
# E. coli Juhl A15119 = test: MIC by two-fold agar dilution; type: cell-based; details: Mueller-Hinton agar, unit assumed
# P. aeruginosa A20741 = test: MIC by two-fold agar dilution; type: cell-based; details: Mueller-Hinton agar, unit assumed
# S. aureus 209P, R4 = test: MIC by two-fold agar dilution; type: cell-based; details: Mueller-Hinton agar, unit assumed
# Description: The minimum inhibitory concentrations (MIC) of Bu-2231 A and B were determined against a wide variety of bacteria and fungi by the two-fold agar dilution method. Mueller-Hinton agar medium was used for the determination of bacterial MIC's (gram-positive and gram-negative), Medium #1001 [Glycerol (3%). Na-glutamate (0.3%), peptone (0.2%), Na2 HPO4 (0.31%), KH2 PO4 (0.1%), ammonium citrate (0.005%), MgSO4.7H2 O (0.001%), agar (1.5%)] for acid-fast bacteria and sabouraud agar for fungi. The results are shown in Tables 9 and 10 comparatively with bleomycin and phleomycin. The antibacterial and antifungal activities of Bu-2231 A and B are much higher than those of the reference antibiotics.
# [1] = tested on: C. tropicalis #125 A15051; test: MIC by two-fold agar dilution; type: cell-based; details: Ct-4 C. tropicalis #125 A15051; sabouraud agar; unit assumed
# Mycobacterium phlei, D88 = test: MIC by two-fold agar dilution; type: cell-based; details: Medium #1001, unit assumed
# [2] = tested on: Mycobacterium ranae, ATCC110; test: MIC by two-fold agar dilution; type: cell-based; details: Medium #1001, unit assumed
# P. aeruginosa H9, D113 = test: MIC by two-fold agar dilution; type: cell-based; details: Mueller-Hinton agar, unit assumed
# P. stuartii A20894 = test: MIC by two-fold agar dilution; type: cell-based; details: Mueller-Hinton agar, unit assumed
# S. aureus A20239 = test: MIC by two-fold agar dilution; type: cell-based; details: Mueller-Hinton agar, unit assumed
# Mycobacterium 607, D46 = test: MIC by two-fold agar dilution; type: cell-based; details: Medium #1001, unit assumed
# P. stuartii A20734 = test: MIC by two-fold agar dilution; type: cell-based; details: Mueller-Hinton agar, unit assumed
# [3] = tested on: C. albicans #520 Yale A9540; test: MIC by two-fold agar dilution; type: cell-based; details: Ca-4 C. albicans #520 Yale A9540; sabouraud agar; unit assumed
# C. tropicalis IAM 4157 = test: MIC by two-fold agar dilution; type: cell-based; details: Ct-1 C. tropicalis IAM 4157; sabouraud agar; unit assumed
# S. aureus Smith A9537 = test: MIC by two-fold agar dilution; type: cell-based; details: Mueller-Hinton agar, unit assumed
# E. cloacae A21006 = test: MIC by two-fold agar dilution; type: cell-based; details: Mueller-Hinton agar, unit assumed
# P. citrinum IAM 7008 = test: MIC by two-fold agar dilution; type: cell-based; details: Pt-1 P. citrinum IAM 7008; sabouraud agar; unit assumed
# S. marcescens A20019 = test: MIC by two-fold agar dilution; type: cell-based; details: Mueller-Hinton agar, unit assumed
# Verticillium sp. = test: MIC by two-fold agar dilution; type: cell-based; details: Vx-1 Verticillium sp.; sabouraud agar; unit assumed
# S. aureus 209P = test: MIC by two-fold agar dilution; type: cell-based; details: Mueller-Hinton agar, unit assumed
# C. neoformans (Cn-1) = test: MIC by two-fold agar dilution; type: cell-based; details: Cn-1 C. neoformans; sabouraud agar; unit assumed
# Mucor sp. = test: MIC by two-fold agar dilution; type: cell-based; details: My-1 Mucor sp.; sabouraud agar; unit assumed
# [4] = mice, single subcutaneous injection, 16 days
# Description: The acute toxicity of copper-free Bu-2231 A and B was determined in mice by a single subcutaneous injection. Groups of 3 mice were used for each dose level and the body weight was recorded for 16 days.
# K. pneumoniae A9678 = test: MIC by two-fold agar dilution; type: cell-based; details: Mueller-Hinton agar, unit assumed
# P. mirabilis A9554 = test: MIC by two-fold agar dilution; type: cell-based; details: Mueller-Hinton agar, unit assumed
# K. pneumoniae D11 = test: MIC by two-fold agar dilution; type: cell-based; details: Mueller-Hinton agar, unit assumed
# C. albicans Nystatin-R = test: MIC by two-fold agar dilution; type: cell-based; details: Ca-2 C. albicans Nystatin-R; sabouraud agar; unit assumed
# P morganii A9553 = test: MIC by two-fold agar dilution; type: cell-based; details: Mueller-Hinton agar, unit assumed
# S. lutea PCI-1001 = test: MIC by two-fold agar dilution; type: cell-based; details: Mueller-Hinton agar, unit assumed
# B. cereus ATCC 10702A = test: MIC by two-fold agar dilution; type: cell-based; details: Mueller-Hinton agar, unit assumed
# B. anthracis 115 = type: cell-based; details: Mueller-Hinton agar, unit assumed
# E. coli A20683 = test: MIC by two-fold agar dilution; type: cell-based; details: Mueller-Hinton agar, unit assumed
# [5] = tested on: Walker 256 carcinosarcoma in ascitic form; details: for Average Weight Change: recorded Day 5; for Survivors Day 44: survivors considered cured; for Survivors Day 5: toxicity evaluation;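 as to all read-outs here: female SD rats bearing intraperitoneally implanted ascites tumor cells, treated ip once a day for 8 days beginning on Day 1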
# Lewis Lung carcinoma = details: Exp. #55; for Survivors Day 5: toxicity evaluation
# [6] = Exp. #5439, 160 mcg/kg/day ip once daily for 8 days
# [7] = Exp. #5439, 640 mcg/kg/day ip once daily for 8 days
# [8] = Exp. #5439, 2560 mcg/kg/day ip once daily for 8 days
# [9] = 1 mg/kg/day ip once daily for 9 days
# [10] = 2 mg/kg/day ip once daily for 9 days
# [11] = 4 mg/kg/day ip once daily for 9 days
# [12] = 8 mg/kg/day ip once daily for 9 days
compound,measurement,setting,value
Cc1c(N)nc([C@H](CC(N)=O)NC[C@@H](N)C(N)=O)nc1C(=O)N[C@H](C(=O)N[C@H](C)[C@@H](O)CC(=O)N[C@@H](C(=O)NC(O[C@@H]1O[C@@H](C)[C@@H](N)[C@@H](O)[C@H]1O)C(O)c1nc(-c2nc(C(=O)NCCCNCCCCN)cs2)cs1)[C@@H](C)O)C(O[C@@H]1O[C@@H](CO)[C@H](O)[C@@H](O)[C@@H]1O[C@H]1O[C@H](CO)[C@@H](O)[C@@H](OC(N)=O)[C@@H]1O)c1cnc[nH]1 (stereo partly drawn) [Bu-2231 B Cu-free],MIC,S. marcescens A20460,0.8 µg/mL
same,MIC,E. coli Juhl A15119,0.2 µg/mL
same,MIC,P. aeruginosa A20741,0.2 µg/mL
same,MIC,"S. aureus 209P, R4",0.8 µg/mL
same,MIC,[1],0.8 µg/mL
same,MIC,"Mycobacterium phlei, D88",0.05 µg/mL
same,MIC,[2],0.1 µg/mL
same,MIC,"P. aeruginosa H9, D113",> 100 µg/mL
same,MIC,P. stuartii A20894,0.4 µg/mL
same,MIC,S. aureus A20239,0.8 µg/mL
same,MIC,"Mycobacterium 607, D46",0.1 µg/mL
same,MIC,P. stuartii A20734,0.8 µg/mL
same,MIC,[3],1.6 µg/mL
same,MIC,C. tropicalis IAM 4157,0.8 µg/mL
same,MIC,S. aureus Smith A9537,0.05 µg/mL
same,MIC,E. cloacae A21006,6.3 µg/mL
same,MIC,P. citrinum IAM 7008,1.6 µg/mL
same,MIC,S. marcescens A20019,0.8 µg/mL
same,MIC,Verticillium sp.,1.6 µg/mL
same,MIC,S. aureus 209P,0.4 µg/mL
same,MIC,C. neoformans (Cn-1),0.2 µg/mL
same,MIC,Mucor sp.,3.1 µg/mL
same,LD50,[4],> 50 mg/kg
same,MIC,K. pneumoniae A9678,0.4 µg/mL
same,MIC,P. mirabilis A9554,0.2 µg/mL
same,MIC,K. pneumoniae D11,0.025 µg/mL
same,MIC,C. albicans Nystatin-R,0.8 µg/mL
same,MIC,P morganii A9553,1.6 µg/mL
same,MIC,S. lutea PCI-1001,0.4 µg/mL
same,MIC,B. cereus ATCC 10702A,0.2 µg/mL
same,MIC,B. anthracis 115,0.1 µg/mL
same,MIC,E. coli A20683,12.5 µg/mL
Phleomycin [reference compound],MIC,S. marcescens A20460,0.8 µg/mL
same,MIC,E. coli Juhl A15119,1.6 µg/mL
same,MIC,P. aeruginosa A20741,6.3 µg/mL
same,MIC,"S. aureus 209P, R4",0.4 µg/mL
same,MIC,[1],6.3 µg/mL
same,MIC,"Mycobacterium phlei, D88",0.1 µg/mL
same,MIC,[2],0.4 µg/mL
same,MIC,"P. aeruginosa H9, D113",> 100 µg/mL
same,MIC,P. stuartii A20894,0.8 µg/mL
same,MIC,S. aureus A20239,0.4 µg/mL
same,MIC,"Mycobacterium 607, D46",0.2 µg/mL
same,MIC,P. stuartii A20734,1.6 µg/mL
same,MIC,[3],6.3 µg/mL
same,MIC,C. tropicalis IAM 4157,3.1 µg/mL
same,MIC,S. aureus Smith A9537,0.1 µg/mL
same,MIC,E. cloacae A21006,50 µg/mL
same,MIC,P. citrinum IAM 7008,3.1 µg/mL
same,MIC,S. marcescens A20019,0.8 µg/mL
same,MIC,Verticillium sp.,6.3 µg/mL
same,MIC,S. aureus 209P,0.2 µg/mL
same,MIC,C. neoformans (Cn-1),0.4 µg/mL
same,MIC,Mucor sp.,3.1 µg/mL
same,MIC,K. pneumoniae A9678,12.5 µg/mL
same,MIC,P. mirabilis A9554,1.6 µg/mL
same,MIC,K. pneumoniae D11,0.4 µg/mL
same,MIC,C. albicans Nystatin-R,1.6 µg/mL
same,MIC,P morganii A9553,6.3 µg/mL
same,MIC,S. lutea PCI-1001,0.4 µg/mL
same,MIC,B. cereus ATCC 10702A,0.2 µg/mL
same,MIC,B. anthracis 115,0.4 µg/mL
same,MIC,E. coli A20683,> 100 µg/mL
Bleomycin [reference compound],MIC,S. marcescens A20460,> 100 µg/mL
same,MIC,E. coli Juhl A15119,1.6 µg/mL
same,MIC,P. aeruginosa A20741,12.5 µg/mL
same,MIC,[1],> 100 µg/mL
same,MIC,"Mycobacterium phlei, D88",0.2 µg/mL
same,MIC,[2],0.8 µg/mL
same,MIC,"P. aeruginosa H9, D113",> 100 µg/mL
same,MIC,P. stuartii A20894,3.1 µg/mL
same,MIC,S. aureus A20239,12.5 µg/mL
same,MIC,"Mycobacterium 607, D46",0.2 µg/mL
same,MIC,P. stuartii A20734,> 100 µg/mL
same,MIC,[3],> 100 µg/mL
same,MIC,C. tropicalis IAM 4157,12.5 µg/mL
same,MIC,S. aureus Smith A9537,3.1 µg/mL
same,MIC,E. cloacae A21006,> 100 µg/mL
same,MIC,P. citrinum IAM 7008,> 100 µg/mL
same,MIC,S. marcescens A20019,> 100 µg/mL
same,MIC,Verticillium sp.,6.3 µg/mL
same,Effect MST %T/C,[5]; [6],111%
same,MST Days,[5]; [6],10.0 days
same,Average Weight Change,"[5]; Exp. #5439, 160 mcg/kg/day",+11 g.
same,Survivors Day 44,"[5]; Exp. #5439, 160 mcg/kg/day",0/6
same,Survivors Day 5,"[5]; Exp. #5439, 160 mcg/kg/day",6/6
same,Effect MST %T/C,[5]; [7],194%
same,MST Days,[5]; [7],17.5 days
same,Survivors Day 44,"[5]; Exp. #5439, 640 mcg/kg/day",1/6
same,Survivors Day 5,"[5]; Exp. #5439, 640 mcg/kg/day",6/6
same,Effect MST %T/C,[5]; [8],> 489%
same,MST Days,[5]; [8],> 44.0 days
same,Average Weight Change,"[5]; Exp. #5439, 2560 mcg/kg/day",+10 g.
same,Survivors Day 44,"[5]; Exp. #5439, 2560 mcg/kg/day",4/6
same,Survivors Day 5,"[5]; Exp. #5439, 2560 mcg/kg/day",6/6
same,Effect MST %T/C,"[5]; Exp. #5501, 160 mcg/kg/day ip once daily for 8 days",157%
same,MST Days,"[5]; Exp. #5501, 160 mcg/kg/day ip once daily for 8 days, Bu-2231 A and B as copper-free formate salts",11.0 days
same,Survivors Day 5,"[5]; Exp. #5501, 160 mcg/kg/day",6/6
same,Effect MST %T/C,"[5]; Exp. #5501, 640 mcg/kg/day ip once daily for 8 days",179%
same,MST Days,"[5]; Exp. #5501, 640 mcg/kg/day ip once daily for 8 days, Bu-2231 A and B as copper-free formate salts",12.5 days
same,Survivors Day 5,"[5]; Exp. #5501, 640 mcg/kg/day",6/6
same,minimum effective dose (MED),"[5]; Table I, Walker 256 ascitic tumor",0.64 mg/kg
same,MIC,S. aureus 209P,6.3 µg/mL
same,MIC,C. neoformans (Cn-1),1.6 µg/mL
same,MIC,Mucor sp.,3.1 µg/mL
same,Effect MST %T/C,Lewis Lung carcinoma; [9],109%
same,MST Days,Lewis Lung carcinoma; [9],24.0 days
same,Survivors Day 5,Lewis Lung carcinoma; 1 mg/kg/day,6/6
same,Effect MST %T/C,Lewis Lung carcinoma; [10],109%
same,MST Days,Lewis Lung carcinoma; [10],24.0 days
same,Survivors Day 5,Lewis Lung carcinoma; 2 mg/kg/day,6/6
same,Effect MST %T/C,Lewis Lung carcinoma; [11],57%
same,MST Days,Lewis Lung carcinoma; [11],12.5 days
same,Survivors Day 5,Lewis Lung carcinoma; 4 mg/kg/day,6/6
same,Effect MST %T/C,Lewis Lung carcinoma; [12],48%
same,MST Days,Lewis Lung carcinoma; [12],10.5 days
same,Survivors Day 5,Lewis Lung carcinoma; 8 mg/kg/day,6/6
same,MIC,K. pneumoniae A9678,6.3 µg/mL
same,MIC,P. mirabilis A9554,50 µg/mL
same,MIC,K. pneumoniae D11,0.2 µg/mL
same,MIC,C. albicans Nystatin-R,12.5 µg/mL
same,MIC,P morganii A9553,> 100 µg/mL
same,MIC,S. lutea PCI-1001,100 µg/mL
same,MIC,B. cereus ATCC 10702A,1.6 µg/mL
same,MIC,B. anthracis 115,12.5 µg/mL
same,MIC,E. coli A20683,> 100 µg/mL
